Data: US12479821B2 (MBD CO., LTD., priority 2019, dated 2025)

Molecular target: T1, CYP4A (Homo sapiens, UniProt Q02928)
T1 construct: host or cells: bactosome, i.e. bacterial membrane preparation (own knowledge of the term)
T1 sequence (Q02928 5-519): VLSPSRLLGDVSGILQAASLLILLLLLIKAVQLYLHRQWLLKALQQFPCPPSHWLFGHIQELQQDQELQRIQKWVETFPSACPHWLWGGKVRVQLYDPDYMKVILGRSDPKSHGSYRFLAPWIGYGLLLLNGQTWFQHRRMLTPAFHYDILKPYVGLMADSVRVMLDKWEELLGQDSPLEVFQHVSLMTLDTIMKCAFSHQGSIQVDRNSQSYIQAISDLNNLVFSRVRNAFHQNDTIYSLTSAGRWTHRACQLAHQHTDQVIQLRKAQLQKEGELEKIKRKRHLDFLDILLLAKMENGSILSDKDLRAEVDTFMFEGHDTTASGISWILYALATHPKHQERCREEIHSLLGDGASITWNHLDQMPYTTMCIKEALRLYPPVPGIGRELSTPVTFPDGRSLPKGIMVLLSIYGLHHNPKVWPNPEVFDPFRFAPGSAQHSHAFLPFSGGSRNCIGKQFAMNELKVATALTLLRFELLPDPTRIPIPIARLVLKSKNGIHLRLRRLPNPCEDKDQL
Assay: CYP4A enzyme assay (Luciferin-ME luminescence, CYP4A bactosome)
Format: biochemical
Conditions: compound concentration 5 μM; 25%-50%; read-out: % Inhibition 25%-50%
Procedure: A commercially available reagent was used for the reagent used in the experiment, and it was manufactured and used if necessary. The device used for activity measurement was EnVision of PerkinElmer or SpectraMax of MOLECULAR DEVICES.
First, CYP4A bactosome and synthetic compound (5 μM) were mixed in assay buffer (100 mM KPO4, 0.1% BSA, 1 mM DTT) in a 384-well plate (white opaque ploystyrene nontreated flat-bottom well), and then reacted at room temperature for 15 minutes. After adding 5 mM Luciferin-ME and NADPH Regeneration system (10× sol.A, 20× sol.B in assay buffer, Cat. Number: V865B, Promega), leave it at room temperature for 30 minutes to allow the CYP4A reaction to occur sufficiently, by adding the Luciferin Detection reagent, the CYP4A reaction was finished, luminescence reaction was induced, and the reaction was carried out at room temperature for 15 minutes. The degree of inhibition of CYP4A activity was measured by comparing the luminescence values from each well with a microplate reader.

Row | inhibition at 5 µM | SMILES
1 | 25 to 50% | Cc1cc(N2CCN(C(=O)C3CCCN(S(=O)(=O)c4ccc(C)c(C)c4)C3)CC2)c2ccccc2n1 (stereo not shown) [Formula 22, (1-((3,4-dimethylphenyl)sulfonyl)piperidin-3-yl) (4-(2-methylquinolin-4-yl)piperazin-1-yl) methanone]
2 | 25 to 50% | Cc1cc(N2CCN(C(=O)C3CCCN(S(=O)(=O)c4ccc(N)cc4)C3)CC2)c2ccccc2n1 (stereo not shown) [Formula 96, (1-(4-aminophenylsulfonyl)piperidin-3-yl) (4-(2-methylquinolin-4-yl)piperazin-1-yl) methanone]
3 | 25 to 50% | Cc1cc(N2CCN(C(=O)C3CCCN(S(=O)(=O)c4c(F)c(F)c(F)c(F)c4F)C3)CC2)c2ccccc2n1 (stereo not shown) [Formula 30, (4-(2-methylquinolin-4-yl)piperazin-1-yl) (1-(perfluorophenylsulfonyl)piperidin-3-yl) methanone]
4 | 25 to 50% | Cc1ccc(S(=O)(=O)N2CCCC(C(=O)N3CCN(c4cc(C(F)(F)F)nc5ccccc45)CC3)C2)cc1 (stereo not shown) [Formula 65, (1-tosylpiperidin-3-yl) (4-(2-(trifluoromethyl)quinolin-4-yl)piperazin-1-yl) methanone]
5 | 25 to 50% | CCc1ccc(S(=O)(=O)N2CCCC(C(=O)N3CCN(c4cc(C)nc5ccccc45)CC3)C2)cc1 (stereo not shown) [Formula 23, (1-(4-ethylphenylsulfonyl)piperidin-3-yl) (4-(2-methylquinolin-4-yl)piperazin-1-yl) methanone]
6 | 25 to 50% | O=C(C1CCCN(S(=O)(=O)c2ccc(F)cc2)C1)N1CCN(c2cc(C(F)(F)F)nc3ccccc23)CC1 (stereo not shown) [Formula 66, (1-(4-fluorophenylsulfonyl)piperidin-3-yl) (4-(2-(trifluoromethyl)quinolin-4-yl)piperazin-1-yl) methanone]
7 | 25 to 50% | O=C(C1CCCN(S(=O)(=O)c2ccc(C(F)(F)F)cc2)C1)N1CCN(c2cc(C(F)(F)F)nc3ccccc23)CC1 (stereo not shown) [Formula 71, (1-(4-(trifluoromethyl)phenylsulfonyl)piperidin-3-yl) (4-(2-(trifluoromethyl)quinolin-4-yl)piperazin-1-yl) methanone]

Same assay, conditions: compound concentration 5 μM; 75% or more; read-out: % Inhibition 75% or more

Row | SMILES | inhibition at 5 µM
8 | CN(C)c1cccc(S(=O)(=O)N2CCC[C@@H](C(=O)N3CCN(c4ccnc5cc(F)ccc45)CC3)C2)c1 [Formula 61, (R)-(1-(3-(dimethylamino)phenylsulfonyl)piperidin-3-yl) (4-(7-fluoroquinolin-4-yl)piperazin-1-yl) methanone] | ≥ 75%
9 | Cc1cc(N2CCN(C(=O)C3CCCN(S(=O)(=O)c4ccc(O)cc4)C3)CC2)c2ccccc2n1 (stereo not shown) [Formula 32, (1-(4-hydroxyphenylsulfonyl)piperidin-3-yl) (4-(2-methylquinolin-4-yl)piperazin-1-yl) methanone] | ≥ 75%
10 | Cc1cc(N2CCN(C(=O)C3CCCN(S(=O)(=O)c4cccc([N+](=O)[O-])c4)C3)CC2)c2ccccc2n1 (stereo not shown) [Formula 28, (4-(2-methylquinolin-4-yl)piperazin-1-yl) (1-(3-nitrophenylsulfonyl)piperidin-3-yl) methanone] | ≥ 75%
11 | Cc1cc(N2CCN(C(=O)C3CCCN(S(=O)(=O)c4ccc(-c5ccccc5)cc4)C3)CC2)c2ccccc2n1 (stereo not shown) [Formula 38, (4-(2-methylquinolin-4-yl)piperazin-1-yl) (1-(4-phenylbenzenesulfonyl)piperidin-3-yl) methanone] | ≥ 75%
12 | O=C(C1CCCN(S(=O)(=O)c2ccc(C(F)(F)F)cc2)C1)N1CCN(c2ccnc3cc(Cl)ccc23)CC1 (stereo not shown) [Formula 7, (4-(7-chloroquinolin-4-yl)piperazin-1-yl) (1-((4-(trifluoromethyl)phenyl)sulfonyl)piperidin-3-yl) methanone] | ≥ 75%

Next, values leading:

Row | inhibition at 5 µM | SMILES
13 | ≥ 75% | O=C(C1CCCN(S(=O)(=O)c2cccc(O)c2)C1)N1CCN(c2ccnc3cc(F)ccc23)CC1 (stereo not shown) [Formula 94, (4-(7-fluoroquinolin-4-yl)piperazin-1-yl) (1-(3-hydroxyphenylsulfonyl)piperidin-3-yl) methanone]
14 | 0% | Cc1cc(N2CCN(C(=O)C3CCCN(S(=O)(=O)c4ccc(-c5cccnc5)cc4)C3)CC2)c2ccccc2n1 (stereo not shown) [Formula 105, (4-(2-methylquinolin-4-yl)piperazin-1-yl) (1-((4-(pyridin-3-yl)phenyl)sulfonyl)piperidin-3-yl) methanone]
15 | ≥ 75% | CC(=O)Nc1ccc(S(=O)(=O)N2CCCC(C(=O)N3CCN(c4ccnc5ccccc45)CC3)C2)cc1 (stereo not shown) [Formula 78, N-(4-((3-(4-(quinolin-4-yl)piperazine-1-carbonyl)piperidin-1-yl)sulfonyl)phenyl) acetamide]
16 | ≥ 75% | CC(=O)Nc1ccc(S(=O)(=O)N2CCCC(C(=O)N3CCN(c4ccnc5cc(Cl)ccc45)CC3)C2)cc1 (stereo not shown) [Formula 116, N-(4-(3-(4-(7-chloroquinolin-4-yl)piperazine-1-carbonyl)piperidin-1-ylsulfonyl)phenyl) acetamide]
17 | ≥ 75% | O=C(C1CCCN(S(=O)(=O)c2ccc(-c3ccncc3)cc2)C1)N1CCN(c2ccnc3ccccc23)CC1 (stereo not shown) [Formula 113, (1-(4-(pyridin-4-yl)phenylsulfonyl)piperidin-3-yl) (4-(quinolin-4-yl)piperazin-1-yl) methanone]
18 | ≥ 75% | O=C(C1CCCN(S(=O)(=O)c2ccc([N+](=O)[O-])cc2)C1)N1CCN(c2ccnc3ccccc23)CC1 (stereo not shown) [Formula 81, (1-(4-nitrophenylsulfonyl)piperidin-3-yl) (4-(quinolin-4-yl)piperazin-1-yl) methanone]
19 | ≥ 75% | O=C(C1CCCN(S(=O)(=O)c2ccc(-c3cccnc3)cc2)C1)N1CCN(c2ccnc3ccccc23)CC1 (stereo not shown) [Formula 114, (1-(4-(pyridin-3-yl)phenylsulfonyl)piperidin-3-yl) (4-(quinolin-4-yl)piperazin-1-yl) methanone]
20 | ≥ 75% | O=C(C1CCCN(S(=O)(=O)c2ccc(-c3cccnc3)cc2)C1)N1CCN(c2ccnc3cc(F)ccc23)CC1 (stereo not shown) [Formula 108, (4-(7-fluoroquinolin-4-yl)piperazin-1-yl) (1-(4-(pyridin-3-yl)phenylsulfonyl)piperidin-3-yl) methanone]
21 | ≥ 75% | O=C(C1CCCN(S(=O)(=O)c2cccc(-c3ccncc3)c2)C1)N1CCN(c2ccnc3cc(F)ccc23)CC1 (stereo not shown) [Formula 109, (4-(7-fluoroquinolin-4-yl)piperazin-1-yl) (1-(3-(pyridin-4-yl)phenylsulfonyl)piperidin-3-yl) methanone]
22 | ≥ 75% | O=C(C1CCCN(S(=O)(=O)c2ccc(-c3cncnc3)cc2)C1)N1CCN(c2ccnc3cc(F)ccc23)CC1 (stereo not shown) [Formula 111, (4-(7-fluoroquinolin-4-yl)piperazin-1-yl) (1-(4-(pyrimidin-5-yl)phenylsulfonyl)piperidin-3-yl) methanone]

Same assay, conditions: compound concentration 5 μM; '50%-75%'; read-out: % Inhibition 50%-75%

Row | SMILES | inhibition at 5 µM
23 | O=C(C1CCCN(S(=O)(=O)c2ccccc2)C1)N1CCN(c2ccnc3ccccc23)CC1 (stereo not shown) [Formula 74, (1-(phenylsulfonyl)piperidin-3-yl) (4-(quinolin-4-yl)piperazin-1-yl) methanone] | 50 to 75%
24 | Cc1cc(N2CCN(C(=O)C3CCCN(S(=O)(=O)c4ccc(C(F)(F)F)cc4)C3)CC2)c2ccccc2n1 (stereo not shown) [Formula 26, (4-(2-methylquinolin-4-yl)piperazin-1-yl) (1-(4-(trifluoromethyl)phenylsulfonyl)piperidin-3-yl) methanone] | 50 to 75%
25 | O=C(C1CCCN(S(=O)(=O)c2ccc(-c3ccccc3)cc2)C1)N1CCN(c2ccnc3cc(Cl)ccc23)CC1 (stereo not shown) [Formula 13, (4-(7-chloroquinolin-4-yl)piperazin-1-yl) (1-(4-phenylbenzenesulfonyl)piperidin-3-yl) methanone] | 50 to 75%
26 | O=C(C1CCCN(S(=O)(=O)c2ccc(F)cc2)C1)N1CCN(c2ccnc3cc(Cl)ccc23)CC1 (stereo not shown) [Formula 3, (4-(7-chloroquinolin-4-yl)piperazin-1-yl) (1-((4-fluorophenyl)sulfonyl)piperidin-3-yl) methanone] | 50 to 75%

Results, then the compound that gave them:

Row | inhibition at 5 µM | SMILES
27 | 50 to 75% | O=C(C1CCCN(S(=O)(=O)c2ccc(Br)cc2)C1)N1CCN(c2ccnc3ccccc23)CC1 (stereo not shown) [Formula 85, (1-(4-bromophenylsulfonyl)piperidin-3-yl) (4-(quinolin-4-yl)piperazin-1-yl) methanone]
28 | 50 to 75% | Cc1cc(N2CCN(C(=O)C3CCCN(S(=O)(=O)c4cccc(O)c4)C3)CC2)c2ccccc2n1 (stereo not shown) [Formula 93, (1-(3-hydroxyphenylsulfonyl)piperidin-3-yl) (4-(2-methylquinolin-4-yl)piperazin-1-yl) methanone]
